Melting point data for 118 compounds are collected here from a melting point compilation (Tetko et al.).

Structures are written as SMILES.

For orientation: melting point means the temperature, or range, at which the solid turns liquid. In turn, `Cc1ccc(S(=O)(=O)Nc2cc(Cl)ccc2O)cc1` gave a melting point of 189 to 191 °C.
`Nc1c(F)cccc1Oc1ccccc1` yielded a melting point of 51 to 53 °C.
The figure for `Cc1cc(F)c(S(=O)(=O)Cl)cc1[N+](=O)[O-]` is 64 to 66 °C; for `CCNc1ccc(Br)cn1` it is 67 to 69 °C.
The figure for `O=C(O)c1cc(F)c(Br)c(S(=O)(=O)Cl)c1` is 213 to 215 °C; for `CCOC(=O)N1CCc2nnc(Cl)cc2C1` it is 106 to 108 °C.
The figure for `COc1ccc2c(c1)c(C(=O)O)c(C)n2Cc1ccccc1` is 209 to 211 °C.
`Nc1ccc2nc[nH]c(=O)c2c1` showed a melting point of 309 to 311 °C.
The figure for `CNC(=O)CN1CCc2ccc(N)cc21` is 143 to 145 °C; for `CCOC(=O)c1nn(-c2ccccc2)cc1C=O` it is 99 to 101 °C; for `COC(=O)c1sc(S(=O)(=O)Cl)c(C(=O)OC)c1C` it is 88 to 92 °C.
The figure for `N#CCc1ccc(OCC2CO2)cc1` (stereo not drawn) is 52 to 54 °C; for `O=C(O)c1ccccc1OCc1ccccc1Cl` it is 119 to 121 °C.
The figure for `CCNC(=O)c1cccnc1Cl` is 47 to 49 °C; for `COC(=O)c1ccc(-c2nc(CCl)cs2)cc1` it is 108 to 110 °C.
In turn, `Cc1[nH]c2ccc(C(N)=O)cc2c1C` had a melting point of 169 to 171 °C.
The figure for `O=S(=O)(Cl)c1cc(Br)c(F)cc1F` is 34 to 36 °C.
The figure for `COC(=O)c1c(C)[nH]c(C(=O)O)c1C` is 206 to 208 °C.
The figure for `CCCN(CCC)C(=O)c1cccc(C(=O)O)c1` is 94 to 96 °C; for `O=C(O)C1(c2cccc(Br)c2)CCCCC1` it is 164 to 166 °C; for `O=C(O)CCNC(=O)c1ccoc1` it is 154 to 156 °C.
For `O=C(O)C1CCCCN1C(=O)OCc1ccccc1` (stereo not drawn), the melting point was 86 to 88 °C.
The figure for `O=C(O)c1ccc(=O)n(Cc2ccccc2Cl)c1` is 182 to 184 °C; for `O=C(O)CCNS(=O)(=O)c1ccccc1Cl` it is 128 to 130 °C.
The figure for `O=C(CCl)Nc1ccccc1Sc1ccccc1` is 159 to 161 °C; for `COc1ccc2c(c1)NC(=O)C2O` (stereo not drawn) it is 189 to 191 °C.
The figure for `Cn1nc(C(F)(F)F)c(C(=O)O)c1C(F)(F)F` is 127 to 129 °C.
In turn, `c1cc2[nH]ccc2cn1` gave a melting point of 107 to 109 °C.
`Cc1csc(NC(=O)C2CCNCC2)n1` registered a melting point of 189 to 191 °C.
The figure for `Sc1nnc(N2CCOCC2)n1Cc1ccco1` is 151 to 153 °C.
As for `Cc1c(S(=O)(=O)Cl)sc2cccc(F)c12`, the melting point lay in the range of 114 to 116 °C.
The figure for `Cc1nc2ccccn2c1CN1CCNCC1` is 163 to 165 °C.
The figure for `O=C(O)COc1ccc(S(=O)(=O)Cl)cc1F` is 131 to 133 °C; for `O=C(O)c1nn(-c2ccccc2)c2c1CCCCC2` it is 171 to 173 °C.
Consider `O=C(O)c1ccc2c(c1)C(=O)N(Cc1ccccc1)C2=O`, for which the melting point is 198 to 200 °C.
The figure for `COc1ccc(-n2ccnc2SCC(=O)O)cc1` is 125 to 127 °C.
The figure for `O=C(O)C1(c2ccccc2F)CCCC1` is 106 to 108 °C; for `Cc1c(Cl)cccc1-n1c(S)nnc1-c1ccncc1` it is 322 to 324 °C; for `CC(N)c1cccc(NC(=O)c2ccccc2)c1` (stereo not drawn) it is 115 to 117 °C.
The figure for `Cc1cc(NC(=O)OC(C)(C)C)sc1C` is 102 to 104 °C; for `CCc1cc(C(=O)O)sc1C` it is 108 to 110 °C; for `Cn1ncc2c(=O)[nH]c(Cl)nc21` it is 268 to 270 °C.
Compound `O=C(O)CCNC(=O)C1CCC1` had a melting point of 105 to 107 °C.
On to `O=C(O)CCCc1ccc2ccccc2c1`, for which the melting point was in the range of 91 to 93 °C.
The figure for `CC(C)(C)OC(=O)NC1CCN(Cc2cc(Cl)cc(Cl)c2)CC1` is 145 to 147 °C; for `O=S(=O)(c1ccc(OCCBr)cc1)N1CCOCC1` it is 137 to 138 °C.
The figure for `CNc1ccc2ccccc2n1` is 69 to 71 °C.
The figure for `O=C1CCS(=O)CC1` is 62 to 64 °C; for `CCC(C)C(=O)N1CCCC(C(=O)O)C1` (stereo not drawn) it is 118 to 120 °C.
`COCCNS(=O)(=O)c1ccc(Cl)c(C(=O)O)c1` displayed a melting point of 142 to 144 °C.
The figure for `CCCOC(=O)c1cc(-c2cncnc2)ccc1N` is 145 to 147 °C.
The figure for `Nc1ccc(F)c(NC(=O)c2ccccc2I)c1` is 147 to 149 °C.
The figure for `Cc1ccc(S(N)(=O)=O)cc1N(C)C` is 126 to 128 °C.
In turn, `COc1ccc(C(=O)O)cc1S(=O)(=O)Nc1ccc(Br)cc1` gave a melting point of 257 to 259 °C.
The figure for `O=C(O)CSc1nnc(-c2ccccc2F)n1-c1ccccc1` is 210 to 212 °C; for `N#CCc1ccc(OCc2ccccc2N)cc1` it is 108 to 110 °C.
Take `COc1ccc(NS(=O)(=O)c2ccc(N)c(N)c2)cc1`: the melting point was in the range of 163 to 165 °C.
For `Nc1ccc(C(O)c2ccccc2)cc1[N+](=O)[O-]` (stereo not drawn), the melting point was 120 to 122 °C.
The figure for `CC(=O)N1CCCCC1CC(=O)O` (stereo not drawn) is 112 to 114 °C; for `CC(=O)Nc1ccc(OCC2CO2)cc1` (stereo not drawn) it is 117 to 119 °C.
Turning to `O=C(O)c1ccc(CN2CCCC2=O)cc1`, the melting point fell in the range of 151 to 153 °C.
The figure for `CS(=O)(=O)N1CCCCC1C(=O)O` (stereo not drawn) is 74 to 76 °C.
The figure for `CC(c1ccccc1)n1c(N)nc2ccccc21` (stereo not drawn) is 124 to 126 °C; for `Cc1ccc(C(=O)O)cc1OCc1csc(Br)c1` it is 158 to 160 °C.
The figure for `O=C(O)c1cc2c(F)cc(Br)cc2[nH]1` is 230 to 232 °C.
In turn, `O=c1cc(-c2cccc(Cl)c2)[nH]c(=O)[nH]1` gave a melting point of 248 to 250 °C.
For `Cc1cc(C)cc(OCC(=O)N2Cc3ccccc3CC2C(=O)O)c1` (stereo not drawn), the melting point was 161 to 165 °C.
The figure for `Cc1[nH]c2c(F)cccc2c(=O)c1C` is 284 to 286 °C; for `CC(C)Cn1ncnc1CO` it is 92 to 94 °C; for `CC(C)(C)OC(=O)N1CCc2ccccc2C1C(=O)O` (stereo not drawn) it is 142 to 144 °C.
In turn, `Cc1nc(Cl)c2c(-c3ccccc3)c(C)sc2n1` showed a melting point of 60 to 62 °C.
The figure for `O=C(CCl)Nc1cccc(C(=O)Nc2cccc(C(F)(F)F)c2)c1` is 197 to 199 °C; for `Cn1ccc(CCl)cc1=O` it is 64 to 66 °C.
The figure for `CC(CSc1ccc(F)cc1)C(=O)O` (stereo not drawn) is 61 to 63 °C; for `O=C(O)CCOc1cc(Cl)ccc1Cl` it is 145 to 147 °C.
`CC(C)NCc1nc2ccccc2c(=O)[nH]1` showed a melting point of 145 to 147 °C.
The figure for `O=C(CCl)NCCOc1ccc2c(c1)OCO2` is 75 to 77 °C; for `O=C(O)c1ccc(SCc2cn3ccccc3n2)cc1` it is 102 to 103 °C; for `N#CCc1nc2scc(-c3ccccc3)c2c(=O)[nH]1` it is 279 to 281 °C.
The figure for `CC(C)(C)c1cccc2c1OCC2=O` is 69 to 71 °C; for `CNS(=O)(=O)c1cc(C(=O)O)ccc1Cl` it is 226 to 228 °C.
The figure for `Cc1cccc(S(=O)(=O)Cl)c1Br` is 56 to 58 °C; for `O=c1[nH]c(-c2ccccc2F)cs1` it is 187 to 189 °C; for `CC(C(=O)c1ccccc1)N1C(=O)CCC1=O` (stereo not drawn) it is 107 to 109 °C.
The compound `N#Cc1ccc2ncccc2c1` gave a melting point of 135 to 137 °C.
The figure for `Nc1cnn(-c2ccccc2F)c1` is 59 to 61 °C.
The figure for `NC(=O)CC(NC(=O)c1ccccc1Cl)C(=O)O` (stereo not drawn) is 190 to 192 °C; for `CCn1c(S)nnc1-c1cccs1` it is 103 to 105 °C.
The figure for `CCOc1ccc(S(N)(=O)=O)cc1Br` is 139 to 141 °C; for `COC(=O)c1c(-c2ccccc2Cl)csc1N` it is 92 to 96 °C; for `C#CCn1ccc2ccccc21` it is 43 to 45 °C.
Compound `O=C(O)C1CC(=O)N(c2ccc3c(c2)OCCO3)C1` (stereo not drawn) yielded a melting point of 221 to 223 °C.
The figure for `CCCCCCOC(=O)c1ccc(N)cc1` is 59 to 61 °C.
With `O=C(O)c1ccc(NS(=O)(=O)c2cccc([N+](=O)[O-])c2)cc1`, the melting point fell in the range of 267 to 269 °C.
With `Nc1ccccc1CS(=O)(=O)c1ccccc1`, the melting point is 172 to 174 °C.
The figure for `Cc1ccc(-n2nc(C(C)C)cc2N)cc1` is 47 to 49 °C; for `CCc1ccc(-c2csc(N)n2)cc1` it is 120 to 122 °C; for `Nc1ccc(-c2ccccc2)nn1` it is 145 to 147 °C.
In turn, `CCc1ccc(C(C)=CC(=O)O)cc1` gave a melting point of 104 to 106 °C.
As to `O=C(O)c1ccc(NC2=NS(=O)(=O)c3ccccc32)cc1`, the melting point is 369 to 371 °C.
`NC(=O)NCc1ccc(N)cc1` showed a melting point of 159 to 161 °C.
As to `CC(C)(C)OC(=O)N1CCc2ccccc21`, the melting point fell in the range of 46 to 50 °C.
The figure for `CCN(CC)S(=O)(=O)c1ccc(-c2csc(N)n2)cc1` is 234 to 236 °C.
The figure for `CCCNC(=O)c1ccc(Cl)cc1[N+](=O)[O-]` is 107 to 109 °C.
The figure for `COC(=O)CN(C)c1ccc(Br)cn1` is 92 to 94 °C; for `O=C(O)C1(O)CCCCC1` it is 102 to 104 °C.
Consider `C/C(=N\NC(N)=S)c1ccccc1`, for which the melting point is 114 to 116 °C.
The figure for `O=C(O)c1ccc(C2CCCOC2)cc1` (stereo not drawn) is 166 to 168 °C; for `Cc1cc(=O)n2c(C)csc2c1C#N` it is 178 to 180 °C; for `CCN(CC)S(=O)(=O)c1c[nH]c(C(=O)O)c1` it is 250 to 252 °C.
The figure for `Clc1nc(CN2CCOCC2)nc2sc3c(c12)CCC3` is 103 to 107 °C.
The figure for `CC(=O)Oc1ccc(C(=O)Nc2ccccc2)cc1` is 161 to 163 °C; for `CC(C)NC(=O)c1ccccc1N` it is 148 to 150 °C.
On to `CC(Cl)C(=O)c1c[nH]c2ccccc12` (stereo not drawn), for which the melting point was in the range of 190 to 192 °C.
In turn, `Cc1ccc(C2CS(=O)(=O)CCN2)o1` (stereo not drawn) yielded a melting point of 111 to 113 °C.
For `Cc1ccc(CC(=O)c2ccc(C)cc2)cc1`, the melting point was in the range of 100 to 102 °C.
The figure for `Cn1nc(C=O)cc1-c1cccs1` is 76 to 78 °C; for `O=C(O)c1ccc(-c2ccccc2)cc1F` it is 187 to 189 °C.
